Columns and labels:
Format in all cases: in vivo
[1] = tested on: Indian mallow; assay: Test Example 3: weedkilling efficacy through soil treatment; K: Indian mallow; settings: treatment dosage 315 g/ha
How it was run: (§1)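 Crop and weed responses were judged three weeks after a uniform surface spray of the water-diluted emulsion at the given g/ha rate. Seeds sat beneath about 1.5 cm of sterilized diluvial soil, and boxes stood in a greenhouse at 25 to 30° C.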

[2] = tested on: catchweed; assay: Test Example 4: weedkilling efficacy by foliar treatment; O: catchweed; settings: treatment dosage 315 g/ha
How it was run: (§2)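 Seeds are spot-sown into sterilized diluvial soil and covered with about 1.5 cm of soil. After 14 days' greenhouse growth at 25 to 30° C, plants are sprayed on stems and leaves with diluted emulsion at the stated g/ha rate, then scored at 3 weeks.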

[3] = tested on: Italian ryegrass; assay: Test Example 4: weedkilling efficacy by foliar treatment; I: Italian ryegrass; settings: treatment dosage 315 g/ha
How it was run: as §2

[4] = tested on: black-grass; assay: Test Example 4: weedkilling efficacy by foliar treatment; H: black-grass; settings: treatment dosage 315 g/ha
How it was run: as §2

[5] = tested on: bulrush; assay: Test Example 1: weedkilling efficacy, preemergent weed treatment in the submerged state; B: bulrush; settings: treatment dosage 252 g/ha
How it was run: (§3)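 Submerged pre-emergence treatment, water-surface application of compound emulsion at g/ha dosages; 4 cm flooded alluvial soil, weeds sown and 2.5-leaf rice transplanted same day. Rated after 3 weeks, greenhouse.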

[6] = tested on: chickweed; assay: Test Example 4: weedkilling efficacy by foliar treatment; N: chickweed; settings: treatment dosage 315 g/ha
How it was run: as §2

[7] = tested on: crabgrass; assay: Test Example 3: weedkilling efficacy through soil treatment; D: crabgrass; settings: treatment dosage 315 g/ha
How it was run: as §1

[8] = tested on: oval-leafed pondweed; assay: Test Example 1: weedkilling efficacy, preemergent weed treatment in the submerged state; C: oval-leafed pondweed; settings: treatment dosage 252 g/ha
How it was run: as §3

[9] = tested on: green foxtail; assay: Test Example 3: weedkilling efficacy through soil treatment; E: green foxtail; settings: treatment dosage 315 g/ha
How it was run: as §1

[10] = tested on: corn; assay: Test Example 4: foliar treatment, effect on crop; c: corn; settings: treatment dosage 315 g/ha
How it was run: as §2

[11] = tested on: oval-leafed pondweed; assay: Test Example 2: weedkilling efficacy, growth period weed treatment in the submerged state; C: oval-leafed pondweed; settings: treatment dosage 252 g/ha
How it was run: (§4)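 Seedlings at 1-2 leaves in 4 cm-deep submerged alluvial soil received emulsion formulations on the water surface, dosed per hectare; effects were judged 3 weeks on.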

[12] = tested on: directly sown rice; assay: Test Example 3: soil treatment, effect on crop; b: directly sown rice; settings: treatment dosage 315 g/ha
How it was run: as §1

[13] = tested on: beet; assay: Test Example 4: foliar treatment, effect on crop; f: beet; settings: treatment dosage 315 g/ha
How it was run: as §2

[14] = tested on: Indian mallow; assay: Test Example 4: weedkilling efficacy by foliar treatment; K: Indian mallow; settings: treatment dosage 315 g/ha
How it was run: as §2

[15] = tested on: fig-leafed goosefoot; assay: Test Example 3: weedkilling efficacy through soil treatment; M: fig-leafed goosefoot; settings: treatment dosage 315 g/ha
How it was run: as §1

[16] = tested on: barnyard grass; assay: Test Example 1: weedkilling efficacy, preemergent weed treatment in the submerged state; A: barnyard grass; settings: treatment dosage 252 g/ha
How it was run: as §3

[17] = tested on: soybean; assay: Test Example 4: foliar treatment, effect on crop; d: soybean; settings: treatment dosage 315 g/ha
How it was run: as §2

[18] = tested on: birds-eye speedwell; assay: Test Example 3: weedkilling efficacy through soil treatment; p: birds-eye speedwell; settings: treatment dosage 315 g/ha
How it was run: as §1

[19] = tested on: directly sown rice; assay: Test Example 4: foliar treatment, effect on crop; b: directly sown rice; settings: treatment dosage 315 g/ha
How it was run: as §2

[20] = tested on: redroot pigweed; assay: Test Example 3: weedkilling efficacy through soil treatment; L: redroot pigweed; settings: treatment dosage 315 g/ha
How it was run: as §1

[21] = tested on: wild oat; assay: Test Example 3: weedkilling efficacy through soil treatment; G: wild oat; settings: treatment dosage 315 g/ha
How it was run: as §1

[22] = tested on: beet; assay: Test Example 3: soil treatment, effect on crop; f: beet; settings: treatment dosage 315 g/ha
How it was run: as §1

[23] = tested on: transplanted rice; assay: Test Example 1: preemergent weed treatment in the submerged state, effect on crop; a: transplanted rice; settings: treatment dosage 252 g/ha
How it was run: as §3

[24] = tested on: birds-eye speedwell; assay: Test Example 4: weedkilling efficacy by foliar treatment; p: birds-eye speedwell; settings: treatment dosage 315 g/ha
How it was run: as §2

[25] = tested on: soybean; assay: Test Example 3: soil treatment, effect on crop; d: soybean; settings: treatment dosage 315 g/ha
How it was run: as §1

[26] = tested on: redroot pigweed; assay: Test Example 4: weedkilling efficacy by foliar treatment; L: redroot pigweed; settings: treatment dosage 315 g/ha
How it was run: as §2

[27] = tested on: barnyard grass; assay: Test Example 2: weedkilling efficacy, growth period weed treatment in the submerged state; A: barnyard grass; settings: treatment dosage 252 g/ha
How it was run: as §4

[28] = tested on: wheat; assay: Test Example 3: soil treatment, effect on crop; e: wheat; settings: treatment dosage 315 g/ha
How it was run: as §1

[29] = tested on: corn; assay: Test Example 3: soil treatment, effect on crop; c: corn; settings: treatment dosage 315 g/ha
How it was run: as §1

[30] = tested on: Italian ryegrass; assay: Test Example 3: weedkilling efficacy through soil treatment; I: Italian ryegrass; settings: treatment dosage 315 g/ha
How it was run: as §1

[31] = tested on: chickweed; assay: Test Example 3: weedkilling efficacy through soil treatment; N: chickweed; settings: treatment dosage 315 g/ha
How it was run: as §1

[32] = tested on: crabgrass; assay: Test Example 4: weedkilling efficacy by foliar treatment; D: crabgrass; settings: treatment dosage 315 g/ha
How it was run: as §2

[33] = tested on: black-grass; assay: Test Example 3: weedkilling efficacy through soil treatment; H: black-grass; settings: treatment dosage 315 g/ha
How it was run: as §1

[34] = tested on: green foxtail; assay: Test Example 4: weedkilling efficacy by foliar treatment; E: green foxtail; settings: treatment dosage 315 g/ha
How it was run: as §2

[35] = tested on: fig-leafed goosefoot; assay: Test Example 4: weedkilling efficacy by foliar treatment; M: fig-leafed goosefoot; settings: treatment dosage 315 g/ha
How it was run: as §2

[36] = tested on: wheat; assay: Test Example 4: foliar treatment, effect on crop; e: wheat; settings: treatment dosage 315 g/ha
How it was run: as §2

[37] = tested on: bulrush; assay: Test Example 2: weedkilling efficacy, growth period weed treatment in the submerged state; B: bulrush; settings: treatment dosage 252 g/ha
How it was run: as §4

Row | SMILES | K (Indian mallow) weedkilling efficacy grade [1] | O (catchweed) weedkilling efficacy grade [2] | I (Italian ryegrass) weedkilling efficacy grade [3] | H (black-grass) weedkilling efficacy grade [4] | B (bulrush) weedkilling efficacy grade [5] | N (chickweed) weedkilling efficacy grade [6] | D (crabgrass) weedkilling efficacy grade [7] | C (oval-leafed pondweed) weedkilling efficacy grade [8] | E (green foxtail) weedkilling efficacy grade [9] | c (corn) effect on crop grade [10] | C (oval-leafed pondweed) weedkilling efficacy grade [11] | b (directly sown rice) effect on crop grade [12] | f (beet) effect on crop grade [13] | K (Indian mallow) weedkilling efficacy grade [14] | M (fig-leafed goosefoot) weedkilling efficacy grade [15] | A (barnyard grass) weedkilling efficacy grade [16] | d (soybean) effect on crop grade [17] | P (birds-eye speedwell) weedkilling efficacy grade [18] | b (directly sown rice) effect on crop grade [19] | L (redroot pigweed) weedkilling efficacy grade [20] | other results
1 | CC1=C(c2ccsc2)C(=O)N(C(C)(C)C(=O)Nc2cccc(F)n2)CO1 [B-2-04] | 4 (weed kill ratio 70% or more, less than 90%) | 4 (weed kill ratio 70% or more, less than 90%) | 5 (weed kill ratio 90% or more, (practically complete withering)) | 5 (weed kill ratio 90% or more, (practically complete withering)) | 5 (weed kill ratio 90% or more, (practically complete withering)) | 4 (weed kill ratio 70% or more, less than 90%) | 5 (weed kill ratio 90% or more, (practically complete withering)) | 5 (weed kill ratio 90% or more, (practically complete withering)) | 5 (weed kill ratio 90% or more, (practically complete withering)) | 3 (weed kill ratio 40% or more, less than 70%) | 5 (weed kill ratio 90% or more, (practically complete withering)) | 5 (weed kill ratio 90% or more, (practically complete withering)) | 5 (weed kill ratio 90% or more, (practically complete withering)) | 5 (weed kill ratio 90% or more, (practically complete withering)) | 5 (weed kill ratio 90% or more, (practically complete withering)) | 5 (weed kill ratio 90% or more, (practically complete withering)) | 4 (weed kill ratio 70% or more, less than 90%) | 5 (weed kill ratio 90% or more, (practically complete withering)) | 5 (weed kill ratio 90% or more, (practically complete withering)) | 4 (weed kill ratio 70% or more, less than 90%) | G (wild oat) weedkilling efficacy grade [21]: 5 (weed kill ratio 90% or more, (practically complete withering)); f (beet) effect on crop grade [22]: 5 (weed kill ratio 90% or more, (practically complete withering)); a (transplanted rice) effect on crop grade [23]: 3 (weed kill ratio 40% or more, less than 70%); P (birds-eye speedwell) weedkilling efficacy grade [24]: 5 (weed kill ratio 90% or more, (practically complete withering)); d (soybean) effect on crop grade [25]: 0 (weed kill ratio 5% or less (practically no effect)); L (redroot pigweed) weedkilling efficacy grade [26]: 5 (weed kill ratio 90% or more, (practically complete withering)); A (barnyard grass) weedkilling efficacy grade [27]: 5 (weed kill ratio 90% or more, (practically complete withering)); e (wheat) effect on crop grade [28]: 5 (weed kill ratio 90% or more, (practically complete withering)); c (corn) effect on crop grade [29]: 1 (weed kill ratio 5% or more, less than 20%); I (Italian ryegrass) weedkilling efficacy grade [30]: 5 (weed kill ratio 90% or more, (practically complete withering)); N (chickweed) weedkilling efficacy grade [31]: 5 (weed kill ratio 90% or more, (practically complete withering)); D (crabgrass) weedkilling efficacy grade [32]: 5 (weed kill ratio 90% or more, (practically complete withering)); H (black-grass) weedkilling efficacy grade [33]: 5 (weed kill ratio 90% or more, (practically complete withering)); E (green foxtail) weedkilling efficacy grade [34]: 5 (weed kill ratio 90% or more, (practically complete withering)); M (fig-leafed goosefoot) weedkilling efficacy grade [35]: 5 (weed kill ratio 90% or more, (practically complete withering)); e (wheat) effect on crop grade [36]: 5 (weed kill ratio 90% or more, (practically complete withering)); B (bulrush) weedkilling efficacy grade [37]: 5 (weed kill ratio 90% or more, (practically complete withering))
2 | CC1=C(c2ccsc2)C(=O)N(C(C)(C)C(=O)Nc2cccc(Br)n2)CO1 [B-2-06] | 4 (weed kill ratio 70% or more, less than 90%) | 4 (weed kill ratio 70% or more, less than 90%) | 5 (weed kill ratio 90% or more, (practically complete withering)) | 5 (weed kill ratio 90% or more, (practically complete withering)) | 5 (weed kill ratio 90% or more, (practically complete withering)) | 4 (weed kill ratio 70% or more, less than 90%) | 5 (weed kill ratio 90% or more, (practically complete withering)) | 5 (weed kill ratio 90% or more, (practically complete withering)) | 5 (weed kill ratio 90% or more, (practically complete withering)) | 1 (weed kill ratio 5% or more, less than 20%) | 5 (weed kill ratio 90% or more, (practically complete withering)) | 5 (weed kill ratio 90% or more, (practically complete withering)) | 4 (weed kill ratio 70% or more, less than 90%) | 3 (weed kill ratio 40% or more, less than 70%) | 5 (weed kill ratio 90% or more, (practically complete withering)) | 5 (weed kill ratio 90% or more, (practically complete withering)) | 4 (weed kill ratio 70% or more, less than 90%) | 5 (weed kill ratio 90% or more, (practically complete withering)) | 5 (weed kill ratio 90% or more, (practically complete withering)) | 5 (weed kill ratio 90% or more, (practically complete withering)) | G (wild oat) weedkilling efficacy grade [21]: 5 (weed kill ratio 90% or more, (practically complete withering)); f (beet) effect on crop grade [22]: 5 (weed kill ratio 90% or more, (practically complete withering)); a (transplanted rice) effect on crop grade [23]: 4 (weed kill ratio 70% or more, less than 90%); P (birds-eye speedwell) weedkilling efficacy grade [24]: 5 (weed kill ratio 90% or more, (practically complete withering)); d (soybean) effect on crop grade [25]: 2 (weed kill ratio 20% or more, less than 40%); L (redroot pigweed) weedkilling efficacy grade [26]: 5 (weed kill ratio 90% or more, (practically complete withering)); A (barnyard grass) weedkilling efficacy grade [27]: 5 (weed kill ratio 90% or more, (practically complete withering)); e (wheat) effect on crop grade [28]: 5 (weed kill ratio 90% or more, (practically complete withering)); c (corn) effect on crop grade [29]: 0 (weed kill ratio 5% or less (practically no effect)); I (Italian ryegrass) weedkilling efficacy grade [30]: 5 (weed kill ratio 90% or more, (practically complete withering)); N (chickweed) weedkilling efficacy grade [31]: 4 (weed kill ratio 70% or more, less than 90%); D (crabgrass) weedkilling efficacy grade [32]: 5 (weed kill ratio 90% or more, (practically complete withering)); H (black-grass) weedkilling efficacy grade [33]: 5 (weed kill ratio 90% or more, (practically complete withering)); E (green foxtail) weedkilling efficacy grade [34]: 5 (weed kill ratio 90% or more, (practically complete withering)); M (fig-leafed goosefoot) weedkilling efficacy grade [35]: 4 (weed kill ratio 70% or more, less than 90%); e (wheat) effect on crop grade [36]: 4 (weed kill ratio 70% or more, less than 90%); B (bulrush) weedkilling efficacy grade [37]: 5 (weed kill ratio 90% or more, (practically complete withering))

— patent publication US9738634B2, “Heterocyclic amide compound and herbicide” (SYNGENTA PARTICIPATIONS AG, priority 2013, dated 2017)
